Test systems include HCC-2998 colon; M14 melanoma; CCRF-CEM leukemia; COLO 205 colon; SK-MEL-5 melanoma; HT29 colon; SK-MEL-2 melanoma; HCT-15 colon; SNB-75 CNS; MCF7 breast; LOX IMVI melanoma.
Common to all, as to assay: DTP human tumour cell line panel, 48 h

The structures appear in SMILES notation.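 48-hour exposure; five concentrations; linearly interpolated endpoints. The concentration for 50% growth inhibition is given as GI50. The concentration for full growth arrest is given as TGI.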

For `O=c1[nH]c2cc([N+](=O)[O-])ccc2nc1/C(=N/Nc1ccccc1)C(O)c1ccc(C(O)/C(=N\Nc2ccccc2)c2cnc3cc([N+](=O)[O-])ccc3n2)cc1` (stereo not drawn), the TGI with HCC-2998 colon is 87.1 µM; in the test on M14 melanoma it was more than 100 µM; in the test with CCRF-CEM leukemia, more than 100 µM; with COLO 205 colon it was more than 100 µM; with SK-MEL-5 melanoma it was more than 100 µM; in the test with HT29 colon, more than 100 µM. The molecule also yielded a total growth inhibition concentration (TGI) in the test with SK-MEL-2 melanoma of more than 100 µM.

As to `O=C1CC(=O)NC(=NN2C(=O)/C(=C/c3ccccc3)N=C2c2ccccc2)N1`, the TGI with HCC-2998 colon, in the test on M14 melanoma, in the test on CCRF-CEM leukemia, in the test with COLO 205 colon, with SK-MEL-5 melanoma and in the test on HCT-15 colon was more than 100 µM in each case. Moreover, the TGI with HT29 colon, in the test with SNB-75 CNS, with MCF7 breast and in the test on SK-MEL-2 melanoma was more than 100 µM in each case.

Consider `N#CC(=C1CCCCC1)c1nc2ccccc2o1`, for which the total growth inhibition concentration (TGI) is more than 100 µM in the test on HCC-2998 colon; more than 100 µM with M14 melanoma; more than 100 µM in the test with CCRF-CEM leukemia; 33.7 µM in the test on COLO 205 colon; more than 100 µM in the test on SK-MEL-5 melanoma; more than 100 µM with HCT-15 colon. Also, the TGI in the test on HT29 colon, in the test on MCF7 breast and in the test with SK-MEL-2 melanoma was more than 100 µM throughout.

Consider `CS(=O)(=O)c1c(N)c2nc(Cl)cn2c2nc3ccccc3nc12`, for which the TGI in the test with HCC-2998 colon, in the test with M14 melanoma, in the test with CCRF-CEM leukemia, in the test on COLO 205 colon, in the test on SK-MEL-5 melanoma and in the test on HCT-15 colon was more than 100 µM throughout. Also, the TGI in the test on HT29 colon, in the test on SNB-75 CNS, in the test on LOX IMVI melanoma and in the test on SK-MEL-2 melanoma was more than 100 µM in each case.

In the case of `CCN(CC)C(=S)SS(=O)(=O)c1ccc(Cl)cc1`, the TGI is more than 100 µM in the test with HCC-2998 colon; 31 µM in the test with M14 melanoma; more than 100 µM in the test with COLO 205 colon; 30.9 µM with SK-MEL-5 melanoma; more than 100 µM with HCT-15 colon; 32.1 µM in the test with HT29 colon. Besides, the values for the TGI in the test with LOX IMVI melanoma and in the test on SK-MEL-2 melanoma were 29.2 µM and more than 100 µM, respectively.

Turning to `C/C=C\C(CC(=O)NCCC1CN(S(=O)(=O)C(F)(F)F)c2ccccc21)CC(=O)OC` (stereo not drawn), the concentration for total growth inhibition (TGI) with HCC-2998 colon was more than 100 µM; with M14 melanoma, more than 100 µM; in the test with CCRF-CEM leukemia, more than 100 µM; with COLO 205 colon, 63 µM; in the test on SK-MEL-5 melanoma it was 41.4 µM; in the test on HCT-15 colon, more than 100 µM. Besides, the total growth inhibition concentration (TGI) is 51.3 µM in the test on HT29 colon, more than 100 µM in the test with MCF7 breast and 94 µM in the test on SK-MEL-2 melanoma.

As to `CC(=O)c1ccc2c(ccc(=O)n2C)c1`, the TGI with HCC-2998 colon, with M14 melanoma, with CCRF-CEM leukemia, in the test on COLO 205 colon, with SK-MEL-5 melanoma and in the test with HCT-15 colon was more than 100 µM in each case. Moreover, the concentration for total growth inhibition (TGI) with HT29 colon, in the test on SNB-75 CNS, in the test with LOX IMVI melanoma and with SK-MEL-2 melanoma was more than 100 µM throughout.

`CCN1C[C@]2(C)CC[C@H](OC)C34C1C([C@H](OC(C)=O)[C@@H]32)[C@@]1(OC)C[C@H](OC)[C@H]2C[C@@H]4[C@@H]1[C@H]2O`: the TGI in the test with HCC-2998 colon, in the test with M14 melanoma, in the test with CCRF-CEM leukemia, with COLO 205 colon, with SK-MEL-5 melanoma and with HCT-15 colon was more than 100 µM in each case. Further, the TGI with HT29 colon, in the test on SNB-75 CNS, in the test with LOX IMVI melanoma and in the test on SK-MEL-2 melanoma was more than 100 µM each time.

As for `CN1CCCCC(C#N)(c2ccccc2)CC1` (stereo not drawn), the concentration for total growth inhibition (TGI) in the test on HCC-2998 colon, in the test on M14 melanoma, in the test with CCRF-CEM leukemia, with COLO 205 colon, in the test with SK-MEL-5 melanoma and in the test on HCT-15 colon was more than 100 µM each time. Besides, the TGI with HT29 colon, with SNB-75 CNS and in the test with MCF7 breast was more than 100 µM throughout.

Regarding `C=C(C)C1CC/C(C)=C/CC[C@]2(C)O[C@H]2CC/C(COC(C)=O)=C\[C@@H]1O` (stereo partly drawn), the TGI in the test with HCC-2998 colon, with M14 melanoma, with CCRF-CEM leukemia, in the test with COLO 205 colon, in the test with SK-MEL-5 melanoma and in the test with HCT-15 colon was more than 50 µM each time. Besides, the TGI in the test on HT29 colon was more than 50 µM; with SNB-75 CNS, 15.2 µM; with MCF7 breast, more than 50 µM; with SK-MEL-2 melanoma, more than 50 µM. Further, the GI50 in the test on M14 melanoma is 8.28 µM; in the test on SNB-75 CNS, 0.625 µM.

Regarding `CN(CCO)c1nc(N)cc(=O)[nH]1`, the TGI in the test on HCC-2998 colon, with M14 melanoma, in the test on CCRF-CEM leukemia, in the test on COLO 205 colon, with SK-MEL-5 melanoma and in the test with HCT-15 colon was more than 100 µM each time. Further, the concentration for total growth inhibition (TGI) in the test on HT29 colon, in the test with SNB-75 CNS, with LOX IMVI melanoma and in the test with SK-MEL-2 melanoma was more than 100 µM each time.

As for `CCN(CC)CCCC(C)Nc1ccnc2ccc3nn(C)nc3c12` (stereo not drawn), the total growth inhibition concentration (TGI) in the test with HCC-2998 colon was more than 100 µM; in the test with M14 melanoma, 90.1 µM; with CCRF-CEM leukemia, more than 100 µM; in the test on COLO 205 colon, more than 100 µM; in the test on SK-MEL-5 melanoma, more than 100 µM; in the test with HT29 colon, more than 100 µM. Also, the concentration for total growth inhibition (TGI) in the test with SNB-75 CNS was more than 100 µM; in the test with LOX IMVI melanoma it was 41.1 µM.

With `COC(C(=O)C(O)C(C)O)C1CC2C=C3C=C(OC4CC(OC5CC(O)C(OC)C(C)O5)C(OC(C)=O)C(C)O4)C(C)C(=O)C3=C(O)C2=C(O)C1OC1CC(OC2CC(OC3CC(C)(O)C(OC(=O)C(C)C)C(C)O3)C(O)C(C)O2)C(O)C(C)O1` (stereo not drawn), the concentration for total growth inhibition (TGI) was less than 0.01 µM with HCC-2998 colon; less than 0.01 µM in the test on M14 melanoma; less than 0.01 µM with COLO 205 colon; less than 0.01 µM in the test with SK-MEL-5 melanoma; less than 0.01 µM with SNB-75 CNS; more than 100 µM in the test on MCF7 breast. In the test on SK-MEL-2 melanoma, this molecule registered a total growth inhibition concentration (TGI) of less than 0.01 µM.

For the molecule `NC(=O)NC(=O)c1cccc(CNc2ccc(C(=O)N[C@@H](CCC(=O)O)C(=O)O)cc2)n1`, the total growth inhibition concentration (TGI) with HCC-2998 colon, in the test on M14 melanoma, with COLO 205 colon, with SK-MEL-5 melanoma, with HCT-15 colon and in the test with HT29 colon was more than 100 µM each time. The concentration for total growth inhibition (TGI) in the test on MCF7 breast, in the test on LOX IMVI melanoma and in the test on SK-MEL-2 melanoma was more than 100 µM each time.

The record behind these values is PubChem BioAssay (NCI).
